# Experiments:
# [1] = system: dermal fibroblast strains; test: Glycosaminoglycan (hyaluronan) synthesis in dermal fibroblasts; assay type: cell-based, human; settings: dermal fibroblast strains from the same donors
# Description: Applicants have also recently made a number of directly relevant observations of the disordered accumulation of hyaluronan in TAO. Orbital fibroblasts synthesize less hyaluronan constitutively than do dermal fibroblasts (Smith, T. J., Bahn, R. S. and Gorman, C. A.: Hormonal regulation of hyaluronate synthesis in cultured human fibroblasts: evidence for differences between retroocular and dermal fibroblasts. J. Clin. Endocrinol. Metab. 69:1019-1023, 1989). However, interferon-γ can modestly upregulate hyaluronan synthesis in orbital but not dermal fibroblasts (Smith, T. J., Bahn, R. S., Gorman, C. A. and Cheavens, M.: Stimulation of glycosaminoglycan accumulation by interferon gamma in cultured human retroocular fibroblasts. J. Clin. Endocrinol. Metab. 72:1169-1171, 1991). […] The macromolecular material was sensitive to Streptomyces hyaluronidase digestion, defining it as hyaluronan (Smith, T. J., Wang, H.-S. and Evans, C. H.: Leukoregulin is a potent inducer of hyaluronan synthesis in cultured orbital fibroblasts. Am. J. Physiol. 268:C382-C388, 1995, appended). The increase was substantially greater in magnitude than that observed in dermal fibroblast strains from the same donors (3-fold) and on the basis of pulse-chase studies could be attributed to changes in net synthesis.
# [2] = system: fibroblasts from individuals without known thyroid disease; test: T lymphocyte migration (chemotaxis) assay of conditioned medium from treated fibroblasts, normal donors; assay type: cell-based, human; settings: IgG 100 ng/ml, IL-1β 10 ng/ml, 24 hours
# Protocol: The general migration assay is described in detail in Sciaky, D., et al., “Cultured human fibroblasts express constitutive IL-16 mRNA: Cytokine induction of active IL-16 protein synthesis through a caspase-3-dependent mechanism,” J. Immunol. 164(7):3806-14 (2000), hereby incorporated fully by reference. Briefly, fibroblasts from TAO and normal orbital tissue were seeded in 24-well arrays and grown to confluence. Monolayers were shifted containing 1% FBS to which nothing, purified normal or TAO IgG was added for various time intervals. Medium was collected and stored until use at −80° C. Chemotaxis was examined using Boyden chambers to which NWNA-T lymphocytes were added as the cellular targets. 50 μl cell suspension (10^7 cells/ml) were placed in the upper compartments of 48-well micro-chemotaxis chambers separated from 32 μl of serum samples by 8 μm micropore nitrocellulose filters (Neuroprobe). These were incubated at 37° C. in 5% CO2 environment for 3 hr. Filters were fixed, stained with hematoxylin, dehydrated, mounted on glass slides and viewed by light microscopy. Lymphocyte migration was quantified by counting the total number of cells migrating beyond a fixed depth. This depth was set to routinely identify a baseline migration under control conditions of 10-15 cells per high power field. Five such fields were counted in duplicate for each sample and the means±SD were calculated and expressed as percentage values of baseline cell migration in control buffer alone (100%). For each set of experimental conditions, at least three separate determinations were performed. Differences between experimental groups were analyzed by the Student t test using absolute values obtained for lymphocyte migration and statistical difference was accepted at the 95% level of confidence.
# To assess specificity for IL-16, experiments were conducted by incubating samples of culture media for 15 min with neutralizing concentrations of anti-IL-16 MAB (clone 14. 1, 10 μg/ml), which blocks the chemotactic activity of 50 ng/ml of rIL-16. Anti-RANTES MAB (5 μg/ml) having an ND50 of 200 ng/ml rRANTES was used to neutralize RANTES as described in Sciaky D., Brazer, W., Center, D. M., Cruikshank, W. W. and Smith, T. J.: Cultured human fibroblasts express constitutive IL-16 mRNA: Cytokine induction of active IL-16 protein synthesis through a caspase-3-dependent mechanism. J. Immunol. 164(7):3806-14, 2000).
# Referring to FIGS. 3A-3C, serum concentrations of IL-16 are elevated in patients with active TAO. Moreover, both IL-16 and PGHS-2 protein can be detected in TAO orbital tissue. The concentration of IL-16 is determined in sera from either patients with Graves' disease or normal controls. The sera are subjected to an ELISA assay, which utilizes an anti-IL-16 specific antibody. IL-16 is detected by standard immunohistochemical techniques in thin sections harvested from affected orbital connective tissues from a patient with severe Graves' ophthalmopathy. In a separate measurement of IL-16 dependent T-cell migration, a panel of 11 different fibroblast strains from patients with Graves' disease and 5 from individuals without known thyroid disease were challenged with Graves' IgG (100 ng/ml), normal IgG (100 ng/ml) or IL-1β (10 ng/ml) for 24 hours and assessed for T cell migration activity and IL-16 production (Table II). Graves' IgG induced IL-16 dependent cell migration in 10 of the Graves' fibroblast strains which derived from orbit and skin from various anatomic regions. Included were strains from the pretibial skin as well as the abdominal wall and the neck. The latter two sites rarely manifest Graves' disease. A substantial fraction of Graves' IgG provoked T cell migration activity in most of these strains was resistant to neutralization with anti-IL-16. Similarly, chemoattractants produced by RA fibroblasts can be measured by T-cell migration. […]
substance,measurement,setting,value
IL-1β: pro-inflammatory cytokine used to activate fibroblasts,up-regulation of glycosaminoglycan synthesis,[1],3 fold
same,T Cell Migration (% control),"[2]; strain 12, Orbit",168 +/− 11 % control
same,T Cell Migration +anti-IL-16,"[2]; strain 12, Orbit",143 +/− 9 % control
same,T Cell Migration +anti-RANTES,"[2]; strain 12, Orbit",156 +/− 9 % control
same,T Cell Migration (% control),"[2]; strain 14, Orbit",189 +/− 10 % control
same,T Cell Migration +anti-IL-16,"[2]; strain 14, Orbit",154 +/− 8 % control
same,T Cell Migration +anti-RANTES,"[2]; strain 14, Orbit",159 +/− 9 % control
same,T Cell Migration (% control),"[2]; strain 15, Extremity Skin",197 ± 10 % control
same,T Cell Migration +anti-IL-16,"[2]; strain 15, Extremity Skin",153 ± 9 % control
same,T Cell Migration +anti-RANTES,"[2]; strain 15, Extremity Skin",172 ± 9 % control
same,T Cell Migration (% control),"[2]; strain 16, Extremity Skin",201 ± 7 % control
same,T Cell Migration +anti-IL-16,"[2]; strain 16, Extremity Skin",155 ± 8 % control
same,T Cell Migration +anti-RANTES,"[2]; strain 16, Extremity Skin",173 ± 7 % control

# — US7998681B2, “Diagnosis and therapy of antibody-mediated inflammatory auto-immune disorders” (Los Angeles Biomedical Research Institute at Harbor-UCLA …, priority 2000, dated 2011)
